Measurements: patent USRE40155E1, “Methods for treatment of benign and malignant tumors, including lymphomas, leukemias, and leiomyomas” (priority 1995, dated 2008)

Experiments:
[1] = test system: AML-3 patients; settings: oral, alone; cited from earlier work
[2] = test system: fresh human promyelocytic leukemia cells (AML3); settings: cited from earlier work
[3] = test system: human leiomyoma cells; assay: Leiomyoma cell proliferation, cell counts and Trypan Blue viability on day 7; format: cell-based
Description: Leiomyoma tissues were obtained from several premenopausal women with symptomatic uterine fibroids at elective hysterectomy, and who were not receiving any hormonal or other drug therapy. The fibroid tissues were minced into 1-2 mm# explants and placed in suitable DMEM supplemented with 10% bovine serum. The fibroid tissue was digested for 14-18 hours at 37 degrees C. in an incubator. After centrifugation, a resulting cell pellet was resuspended in DMEM and then placed in culture flasks. The cultures were maintained at 37 degrees centigrade in a humidified atmosphere of 5% CO2 and 95% air.
Leiomyoma cells were plated in 100 mm dishes (100,000 each dish) and allowed to attach overnight in DMEM plus 10% fetal bovine serum until they reached 80-90% confluence.

[4] = test system: human T-cell leukemia (JURKAT) cells; assay: MTS assay of JURKAT cell proliferation; format: cell-based; settings: 900 mcg/ml, 72 hours
Description: Inhibition of proliferation by pirfenidone of human T-cell leukemia (JURKAT) cells in vitro.
(§1) To determine the inhibitory effect of pirfenidone concentrations on human T-cell leukemia (JURKAT), a MTS assay was used which incorporates a tetrazolium dye that measures the cellular conversion of the dye into a formazan product by the activation of NADH-generating dehydrogenases found in metabolically active cells.
(§2) 1. 100 microl. of cells was seeded into 96 well plates at 1×10^5 cells/ml in media containing 100 mcg/ml, 300 mcg/ml and 900 mcg/ml of pirfenidone, as well as a pirfenidone-free media control.
(§3) 2. Cells were incubated at 37 degrees C., at 5.0% CO2 for 72 hours.
(§4) 3. After incubation a standard curve was made of 100 microliters of cells added to the plate at 5×10^5 cells/ml making 1:2 dilutions all the way down to a pre-set degree of dilution.
(§5) 4. 2.0 mls of the MTS solution was mixed with a 100 microliter of the PMS solution, and 20 microliters of this combined dye solution was added to each well and incubated at 37 degrees C., 5.0% CO2 for 3 hours.
(§6) 5. Subsequently the absorbance was read at 490 nm.

[5] = test system: human promyelocytic leukemia (HL-60) cells; assay: Inhibition of proliferation of HL-60 cells, Trypan Blue cell counts; format: cell-based
Text: Inhibition of proliferation by pirfenidone of human promyelocytic leukemia (HL-60) cells in vitro.
[…] Five ml of each pirfenidone concentration, and of the control were placed into a T25 tissue culture flask along with 1×10^5 cells. Every day for 4 days an aliquote from each flask was taken out, then stained with Trypan Blue, and counts were repeated three times on each aliquote.

[6] = test system: human Burkitt's lymphoma (RAJI) cells; assay: MTS assay of RAJI cell proliferation; format: cell-based; settings: 900 mcg/ml, 72 hours
Description: Inhibition of proliferation by pirfenidone of human Burkitt's lymphoma (RAJI) cells in vitro.
as §1, with “Burkitt's lymphoma (RAJI) cells,” for “human T-cell leukemia (JURKAT),”
as §2, §3, §4, §5, §6

Question: For CC1=C(/C=C/C(C)=C/C=C/C(C)=C/C(=O)O)C(C)(C)CCC1 [All-trans-retinoic acid], which clinical response [1] is on record?
Answer: The clinical response was “complete remission”.

Question: And the “induction of differentiation in vitro” value [2]?
Answer: The value was “differentiate in vitro to mature functional gramulocytes”.

Question: Which results are given for Cc1ccc(=O)n(-c2ccccc2)c1 [pirfenidone]?
Answer: CELL COUNTS (DAY 7) LEIOMYOMA ([3]; 0.01 MG/ML): 315,000; RECENT DEAD CELLS (DAY 7) LEIOMYOMA ([3]; 0.01 MG/ML): 8.0; CELL COUNTS (DAY 7) LEIOMYOMA ([3]; 0.1 MG/ML): 205,000; RECENT DEAD CELLS (DAY 7) LEIOMYOMA ([3]; 0.1 MG/ML): 10.0; CELL COUNTS (DAY 7) LEIOMYOMA ([3]; 0.3 MG/ML): 170,000; RECENT DEAD CELLS (DAY 7) LEIOMYOMA ([3]; 0.3 MG/ML): 6.0; CELL COUNTS (DAY 7) LEIOMYOMA ([3]; 1.0 MG/ML): 69,000; RECENT DEAD CELLS (DAY 7) LEIOMYOMA ([3]; 1.0 MG/ML): 16.0; percentage of dead leiomyoma cells ([3]; 1000 micrograms/ml): 16%; effect on proliferation of leiomyoma cells ([3]; graded concentrations in the culture media, 7 days (FIG. 4)): significant inhibitory effect; reduction in number of active JURKAT cells [4]: 75%; toxic death of HL-60 cells ([5]; 900 micrograms/ml, after 3 and 4 days): without causing a toxic death of the cells; inhibition of proliferation and cell death of HL-60 cells ([5]; 1400 micrograms/ml): deaths of almost all cells; inhibition at 900 µg/mL ([5]; Homo sapiens, HL-60, 900 micrograms/ml, after 3 and 4 days): 63%; reduction in number of active RAJI cells [6]: 45%
